Results from patent US20120329879A1, “BETA-ADRENERGIC RECEPTOR AGONISTS AND USES THEREOF” (THE UNIVERSITY OF TENNESSEE RESEARCH FOUNDATION, priority 2010, published 2012).
Several values for one entry are separate records, joined by “and”; a condition that tells them apart may be missing. Equal entries are not always repeated. Entries after “also recorded” stand apart in the source; their conditions may differ.

Experiments:
[1] = Body weight, blood glucose, blood pressure and intraocular pressure in streptozotocin diabetic rats on eye drop therapy; format: in vivo, rat
Protocol: Male Lewis rats purchased from Charles River were used. Diabetic rats received a single injection of 60 mg/kg streptozotocin (Fisher, Pittsburgh, Pa.). […] All rats were weighed weekly and only rats with non-fasting blood glucose levels >250 mg/dl were considered diabetic. The designation of diabetic was made at the beginning of the experiments. Glucose was measured bimonthly. No insulin was administered to the rats at any time. To determine whether topical application of Compound 2 could reach the retina and elicit response, dose and time course studies were performed. For those studies, animals were made diabetic for 2 months using STZ. For 4 days, rats received a variety of doses of either Compound 2 (1 mM to 20 mM) or PBS once or twice each day. After the 4 days of eye drop treatment to both eyes, the diabetic and control animals were euthanized. […] After determining the optimal dose and time course for eye drop treatment for Compound 2, three groups of rats were used for this part of the study (control, diabetic (Diabetic), and diabetic+eye drop (Diab+2). Within 1 week of STZ-injection, 12 rats were put onto eye drop therapy. Rats on the eye drop therapy received a daily application of 4 drops of 1 mM Compound 2 to each eye. To verify that insulin levels were lost in the diabetic animals, insulin ELISA (Rat/Mouse Insulin ELISA kit, Linco, St. Charles, Mo.) was done on blood sampled from all rats at 2 months of age. Rats were sacrificed at 2 or 8 months of age. […] Analyses on the rats were done for acute changes (8 weeks of diabetes, 45 rats) and chronic changes (8 months of diabetes, 45 rats). […] Each month, all rats were tested for visual function: electroretinogram (ERG) and live retinal imaging were performed using Optical Coherence Topography (OCT). […] While the animals were asleep for ERG analyses, blood pressure and pulse were monitored to detect potential negative cardiovascular events.

[2] = test system: retinal capillaries of diabetic rats; experiment: Quantitation of acellular (degenerate) capillaries in trypsin-digested retinal vasculature; format: in vivo, rat; settings: 1 mM eye drops, 8 months of diabetes, hydrochloride
Protocol: For the acellular capillary counts, retinas from an eye of control, diabetic, and diabetic+2 were used. Eyes were enucleated and placed into 10% buffered formalin for 5 days. The retina was dissected in 3% crude trypsin solution (Difco Bacto Trypsin 250, Detroit, Mich.) containing 0.2 M sodium fluoride at 37 C for 2 hours (5). The neural retina was gently brushed away and the remaining retinal vascular tree was dried onto a glass slide. Once the isolated retinal vascular tree was dried onto the glass slide, the slide was stained with hematoxylin-periodic acid-Schiff. Degenerate (acellular) capillaries were counted in mid-retina in six to seven fields evenly spaced around the retina. Degenerate capillaries were identified as capillary-sized tubes having no nuclei anywhere along their length. Degenerate capillaries were counted only if their average diameter was at least 20% of that found in surrounding healthy capillaries (6-7).

TNFalpha = TNFalpha ELISA of retina of diabetic rats; format: in vivo, rat
Text: The other eye from each animal was used for protein analyses for inflammatory markers and insulin receptor signaling. Western blotting was done as described (9). Antibodies used were total insulin receptor beta (1:500, Cellular Signaling, Danvers, Mass.), phosphorylated insulin receptor beta (Tyr 1150/1151, 1:500, Cellular Signaling, Danvers, Mass.), total Akt (1:500, Cellular Signaling, Danvers, Mass.), and phosphorylated Akt (Ser 473, 1:500, Cellular Signaling, Danvers, Mass.). For analyses of the data, mean densitometry values were obtained using the Kodak 2.0 software. The ratio of phosphorylated protein was compared to levels of total protein.
To determine the TNF concentration (Pierce, Rockford Ill.) and levels of cleaved caspase 3 (Cellular Signaling, Danvers, Mass.), ELISA analyses were done according to manufacturers instructions, except that equal protein was loaded into the cleaved caspase 3 ELISA so the optical density numbers can be used.

retina of diabetic rats = experiment: Assessment of retinal thinning and loss of cells in ganglion cell layer; format: in vivo, rat
Text: Assessment of retinal thinning and loss of cells in ganglion cell layer Formalin-fixed paraffin sections were stained with toluidine blue for light microscopy and morphometry of retinal thickness (8). Pictures were taken at four locations in the retina (both sides of the optic nerve and mid-retina) at 400×. The nuclei in the retinal ganglion cell layer (GCL) were counted in a […] section of each picture, and the thickness of the inner retina (from the top of the inner nuclear layer to the inner limiting membrane) was assessed using a Retiga camera attached to a Nikon Biophot light microscope with Qcapture software (Qlmaging, Burbay, BC, Canada). Retinal thickness and number of cells in the ganglion cell layer were measured using OpenLab software (Improvision, Lexington, Mass.). Retinal thickness and live retinal imaging were assessed using rodent OCT. Each layer of the retina was examined multiple times on the same animal in a non-invasive way to determine changing in specific regions over the course of the experiment. […] Light microscopy was used for histological examination of neuronal changes, which often occur in the acute phases. Formalin-fixed paraffin sections were stained with toluidine blue for light microscopy and morphometry of retinal thickness. Pictures were taken at four locations in the retina (both sides of the optic nerve and mid-retina) at 400×. The nuclei in the retinal ganglion cell layer (GCL) were counted in a 100 μm section of each picture. The thickness of the inner retina from the top of the inner nuclear layer to the inner limiting membrane was assessed using a Retiga camera attached to a Nikon Biophot light microscope with Qcapture software (Qlmaging, Burbay, BC, Canada). Retinal thickness and number of cells in the retinal ganglion cell layer were measured using OpenLab software (Improvision, Lexington, Mass.). Unpaired T-tests were used to compare data from control, diabetic, and diabetic+eye drop treated animals, with P<0.05 being accepted as significant.

[3] = Tissue distribution of Compound 2 in heart, lung and spleen after topical delivery; format: in vivo; settings: rat, 24 hours after topical 10 mg/kg, single animals 1-5
[4] = Vitreous humor levels of Compound 2 after topical administration to rats; format: in vivo; settings: rat, 10 mg/kg
Protocol: For data analyses B/PK parameters were derived from the obtained plasma, vitreous humor, urine and feces concentration data by standard non-compartmental analysis. Terminal half-life was determined as the ratio of ln 2 divided by λz, the negative of the slope of the linear regression of the natural log concentration vs. time profile during the terminal phase. Systemic and ocular exposure was determined as plasma or ocular area under the concentration-time curve (AUC) using the trapezoidal rule. Compound 2 concentration determination and metabolite profiling is conducted using a validated LC/MS/MS assay based on the methodology described (14-15). The LC-MS/MS system comprises a Shimadzu HPLC system (Kyoto, Japan), API-4000 Q Trap tandem mass spectrometer (Foster City, Calif., USA) equipped with a turbo ion-spray and a HTC-PAL autosampler (Leap Technologies, Carrboro, N.C., USA).

[5] = diabetic rats, daily 1 mM Compound 2 eye drops, in mmHg (unit assumed)
[6] = following Compound 2 treatment, in words
[7] = delayed treatment: 6 month diabetic rats, Compound 2 for 2 months
[8] = diabetic rats, 1 mM eye drops as preventative, central retina, hydrochloride

For `COc1cc(CCNC[C@H](O)c2ccc(O)c(O)c2)cc(OC)c1OC.Cl` (single isomer, unassigned) [Compound 2, 4-[1-hydroxy-2-(1-ethylamino-3-,4-,5-trimethoxyphenyl)ethyl]benzene-1,2-diol hydrochloride], the “effect on body weight” value ([1]; daily administration of 1 mM, in words) was “did not affect”, the Body wt ([1]; diabetic rats, daily 1 mM Compound 2 eye drops) was 248.7 ± 8.3 g and the “BP Systolic” value [1, 5] was 104.8 ± 13.7. The IOP [1, 5] was 8.08 ± 1.17, the “effect on blood pressure” value [1, 6] was “no observed effect” and the “effect on intraocular pressure” value [1, 6] was “no observed effect”. The “numbers of degenerate capillaries” value [2] was “significantly reduced numbers of degenerate capillaries; also recorded: significantly reduce numbers of degenerate capillaries to levels similar to controls”, the “TNFalpha levels in retina, 8 months” value (TNFalpha; 1 mM eye drops, 8 months) was “levels similar to Ctrl rats” and the “TNFα concentration throughout the treatment regimen” value (TNFalpha; eye drop therapy) was “effective in reducing TNFα concentration throughout the treatment regimen”. The “increase in retinal thickness over diabetic rats alone” value (retina of diabetic rats; [7]) was roughly 50%, the “loss of cells in the ganglion cell layer, delayed treatment” value (retina of diabetic rats; [7]) was “no loss of cells in the ganglion cell layer” and the inner retinal thickness (retina of diabetic rats; [8]) was “loss of inner retinal thickness was prevented; also recorded: maintains the retinal thickness”. For the same molecule, the “number of cells in the ganglion cell layer” value (retina of diabetic rats; [8]) was “prevented in the Compound 2-treated animals; also recorded: maintains the retinal thickness and cell number”, the “loss of retinal thickness and apoptosis of cells of the ganglion cell layer” value (retina of diabetic rats; diabetic rats, 50 mM eye drops 1 time each day for 8 months) was “effective in preventing the loss of retinal thickness and apoptosis of cells of the ganglion cell layer” and the “concentration in Heart” value [3] was less than 400 ng/g. For the same molecule, the “concentration in Lung” value ([3]; hydrochloride) was 463.43 ng/g and 2262.08 ng/g and 2862.22 ng/g and 2060.08 ng/g and 535.24 ng/g, the “concentration in Spleen” value ([3]; hydrochloride) was 12134.03 ng/g and 8393.8 ng/g and 7061.2 ng/g and 4544.4 ng/g and 34331.0 ng/g and the concentration at 24 h ([3]; heart, topical, 10 mg/kg) was less than 400 ng/g. The “concentration in the vitreous humor within 1 hour” value [4] was “approximately 8 ug/ml”, the “time by which all detectable levels in the vitreous humor are gone” value [4] was no more than 2 h and the “time of peak concentration in the vitreous humor” value [4] was less than 1 h.
